Measured values taken from patent publication US20220296535A1, “Antibacterial Dosage Regime Using Cannabinoids” (Botanix Pharmaceuticals Limited, priority 2019, published 2022).
Values after ≈ are worked out from the molar mass of the structure shown. Values joined by “and” are separate entries in the source; they are usually repeats but may differ in a detail not shown here. Identical values can stand only once. Counter-ions that a name gives are not always drawn. Like-named read-outs stand apart in the source and are kept apart here.

Experiments:
[1] = system: high-level mupirocin-resistant isolate 993; assay: MIC microtiter broth dilution (Example 9); type: cell-based; settings: Staphylococcus aureus; MRSA strain 993
Method: (§1) Strains used: ATCC 29213 (standard control), ATCC 43300, low-level mupirocin-resistant isolate 815, high-level mupirocin-resistant isolage 329, high-level mupirocin-resistant isolate 993.
(§2) All strains prepared as described in “Bacterial Preparation” section above with the following differences: inocula were prepared in Müller-Hinton broth (MHB) rather than RPMI, and were diluted 1:10,000 following wash for an inoculum concentration of ˜5×10^4 CFU/mL.
(§3) Using a multichannel pipet, 100 μL of MHB was added to each of the wells of the 96-well plates (round bottom/U-bottom). Stock solutions of antibiotic were prepared at 2× the highest assay concentration (mupirocin at 4096 μg/mL and CBD at 100 μg/mL). 100 μL of this broth was added to each of the broth-containing wells in column 1 of the plate, and mixed by pipetting the full volume 6-7 times, for a final concentration of 2048 μg/mL mupirocin or 50 μg/mL CBD. […]
(§4) 5 μL of each inoculum was added to the appropriate wells (various wells were left without inoculation and used to correct the absorbance of the CBD-containing wells and as negative controls). […] Plate was read by a plate reader at 600 nm.
(§5) Inhibition was determined to have occurred in the first well with a difference in OD600 of <0.05 from the uninfected wells with the same concentration of antimicrobial, provided inhibition growth continued through all higher concentrations. […]

[2] = system: high-level mupirocin-resistant isolate 329; assay: MIC microtiter broth dilution (Example 9); type: cell-based; settings: Staphylococcus aureus; MRSA strain 329
Method: as §1, §2, §3, §4, §5

[3] = system: Staphylococcus aureus ATCC 43300; assay: Broth MIC (Example 1); type: cell-based; settings: for MIC: Staphylococcus aureus
Method: (§6) The collaborator supplied sample as dry material. A stock solution at 10 mg/mL in neat DMSO (11.2 mg in 1.12 mL of DMSO) was prepared. The highest concentration tested in the assay was 128 μg/mL and 2% DMSO as a final concentration using 1/20 dilution to achieve these concentrations.

[4] = system: A. acidipropionici ATCC 25562; assay: Anaerobic MIC micro-broth dilution; type: cell-based, Acidipropionibacterium acidipropionici
[5] = system: Staphylococcus aureus MRSA ATCC 43300 biofilm; assay: Biofilm minimum inhibitory concentration (Biofilm MIC), crystal violet OD590; type: cell-based; settings: two technical replicates, ≥70% inhibition OD590; for Biofilm MIC (TSB + 5% Gluc) 07/112/18: first biological replicate; for Biofilm MIC (TSB + 5% Gluc) 14/112/18: second biological replicate
Method: as §6
Bacteria (Staphylococcus aureus, ATCC 43300; MRSA) was cultured on Tryptic Soy Broth (TSB, BD, Cat. No. 211825) at 37° C. overnight, then it was diluted 1:100 in fresh TSB supplemented with 5% glucose. 100 μL were added across the 96-well of polystyrene (PS) (Corning; Cat. No. 3370) plate, leaving row H as media Control. Plates were incubated at 37° C. for 48 h to generate the biofilm. The plates were prepared in duplicate.
The antibiotic controls and CBD were serially diluted in TSB with 5% glucose two-fold across the wells of polystyrene (PS) 96-well plates (Corning; Cat. No. 3370), plated in duplicate. All plates had flat bottom wells and were covered with low-evaporation lids.
48 h after incubation, bacteria plates were carefully washed three times with 200 μL/well of saline solution (0.9% NaCl, Baxter Healthcare; Cat. No. AHF7124) using manual pipette to remove the planktonic cells but leave the biofilm adhered to the plate wells. Then, 100 μL of diluted controls and CBD were transferred into the washed plates containing the biofilm. Then, these plates were incubated at 37° C. for 24 h.
Next day, plates were washed three times with saline solution, then fixed with 100 μL/well of 99% methanol for 15 minutes. Once the biofilm was fixed, 100 μL/well 0.1% Crystal Violet Stain (Sigma; Cat No. C0775-25G) was added for 20 minutes and used as indicator of biofilm formation, followed by three times washing and dry well. To dissolve the crystal violet, 150 μL/well of methanol was added to allow for biofilm MIC analysis.
The biofilm formation was determined by optical density read at 590 nm (OD590). The percentage of biofilm formation was evaluated comparing the average, standard deviation and percentage of confidence of the media control (Row H) against the rest of the plate.
Analysis was performed using Microsoft Excel.

[6] = system: S. aureus MSSA (26 strains); assay: MIC50/MIC90 micro-broth dilution, MSSA strains
[7] = system: S. aureus MRSA (106 strains); assay: MIC50/MIC90 micro-broth dilution, MRSA strains; type: cell-based, Staphylococcus aureus
C. granulosum ATCC 25564 = assay: Anaerobic MIC micro-broth dilution; type: cell-based, Cutibacterium granulosum; settings: Cutibacterium granulosum, ATCC25564, 48 h
[8] = system: 132 strains of Staphylococcus aureus (106 MRSA and 26 MSSA strains); assay: MIC50/MIC90 micro-broth dilution, all strains
P. acnes ATCC 6919 = assay: Anaerobic MIC micro-broth dilution; type: cell-based, Cutibacterium acnes (formerly Propionibacterium acnes)
S. aureus ATCC 43300 = assay: Anaerobic MIC micro-broth dilution; type: cell-based, Staphylococcus aureus
[9] = ATCC43300, read-out: Broth MIC, CAMHB
[10] = ATCC43300, read-out: Broth MIC, TSB + 5% Glucose
[11] = Acidipropionibacterium acidipropionici, ATCC25562, 48 h
[12] = Cutibacterium acnes, ATCC6919, 48 h
[13] = A. acidipropionici ATCC 25562, anaerobic chamber, BHI, 48 h
[14] = S. aureus ATCC 43300, anaerobic chamber, BHI, 48 h

Row | Compound | MIC [3, 9] | MIC [3, 10] | Biofilm MIC (TSB + 5% Gluc) 07/112/18 [5] | Biofilm MIC (TSB + 5% Gluc) 14/112/18 [5] | MIC50 ([6]; Staphylococcus aureus, MSSA) | MIC90 ([6]; Staphylococcus aureus, MSSA) | MIC50 ([7]; Staphylococcus aureus, MRSA) | MIC90 ([7]; Staphylococcus aureus, MRSA) | MIC (C. granulosum ATCC 25564) | MIC range ([8]; S. aureus spp. ALL) | MIC50 ([8]; Staphylococcus aureus) | MIC90 ([8]; Staphylococcus aureus) | other results
1 | C/C(=C\C(=O)OCCCCCCCCC(=O)O)C[C@@H]1OC[C@H](C[C@@H]2O[C@H]2[C@@H](C)[C@H](C)O)[C@@H](O)[C@H]1O [Mupirocin] | 0.25 µg/mL (≈ 0.499 µM) | 0.25 µg/mL | 0.25 µg/mL and 0.125 µg/mL | 0.25 µg/mL | 0.5 µg/mL (≈ 0.999 µM) | 0.5 µg/mL (≈ 0.999 µM) | 0.5 µg/mL (≈ 0.999 µM) | 0.5 µg/mL (≈ 0.999 µM) | > 32 µg/mL | 0.125 to 64 µg/mL | 0.5 µg/mL (≈ 0.999 µM) | 0.5 µg/mL (≈ 0.999 µM) | MIC [1]: 256 to 2050 µg/mL (≈ 511 to 4090 µM); MIC [2]: 256 to 2050 µg/mL (≈ 511 to 4090 µM); MIC [4, 11]: > 32 µg/mL; MIC (P. acnes ATCC 6919; [12]): > 32 µg/mL
2 | CCC[C@@H]1C[C@@H](C(=O)N[C@@H]([C@H]2O[C@H](SC)[C@H](O)[C@@H](O)[C@H]2O)[C@H](C)Cl)N(C)C1.Cl.O [Clindamycin, Clindamycin hydrochloride monohydrate] | – | – | >64 µg/mL | >64 µg/mL | – | – | – | – | – | 0.03 to 64 µg/mL | – | – | Broth MIC ([3]; CAMHB): >64 µg/mL; Broth MIC ([3]; TSB + 5% Glucose): >64 µg/mL; MIC [4, 13]: 0.125 µg/mL; MIC (S. aureus ATCC 43300; [14]): >32 µg/mL; MIC50 ([6]; S. aureus MSSA): 0.125 µg/mL; MIC90 ([6]; S. aureus MSSA): 0.1875 µg/mL; MIC50 ([7]; S. aureus MRSA): 0.125 µg/mL; MIC90 ([7]; S. aureus MRSA): 64 µg/mL; MIC50 ([8]; S. aureus spp. ALL): 0.125 µg/mL; MIC90 ([8]; S. aureus spp. ALL): 64 µg/mL; MIC (P. acnes ATCC 6919; P. acnes ATCC 6919, anaerobic chamber, BHI, 48 h): 0.125 µg/mL
3 | COc1cc(Cc2cnc(N)nc2N)cc(OC)c1OC [Trimethoprim] | 1 µg/mL (≈ 3.44 µM) | 4 µg/mL | 8 µg/mL | 16 µg/mL and >64 µg/mL | – | – | – | – | – | – | – | – | –
4 | CC[C@H]1OC(=O)[C@H](C)[C@@H](O[C@H]2C[C@@](C)(OC)[C@@H](O)[C@H](C)O2)[C@H](C)[C@@H](O[C@@H]2O[C@H](C)C[C@H](N(C)C)[C@H]2O)[C@](C)(O)C[C@@H](C)C(=O)[C@H](C)[C@@H](O)[C@]1(C)O [Erythromycin] | – | – | – | – | – | – | – | – | 0.125 µg/mL (≈ 0.17 µM) | – | – | – | MIC [4, 13]: 4/2; MIC (S. aureus ATCC 43300; Staphylococcus aureus, ATCC43300, 48 h): > 32 µg/mL
5 | CCCCCCCCCC(=O)N[C@@H](Cc1c[nH]c2ccccc12)C(=O)N[C@H](CC(N)=O)C(=O)N[C@@H](CC(=O)O)C(=O)N[C@@H]1C(=O)NCC(=O)N[C@@H](CCCN)C(=O)N[C@@H](CC(=O)O)C(=O)N[C@H](C)C(=O)N[C@@H](CC(=O)O)C(=O)NCC(=O)N[C@H](CO)C(=O)N[C@@H]([C@H](C)CC(=O)O)C(=O)N[C@@H](CC(=O)c2ccccc2N)C(=O)O[C@@H]1C [Daptomycin, reference compound] | – | 32 µg/mL | 32 µg/mL and 16 µg/mL | 16 µg/mL | 2 µg/mL (≈ 1.23 µM) | 2 µg/mL (≈ 1.23 µM) | 2 µg/mL (≈ 1.23 µM) | 4 µg/mL (≈ 2.47 µM) | – | 0.5 to 16 µg/mL | 2 µg/mL (≈ 1.23 µM) | 4 µg/mL (≈ 2.47 µM) | –
6 | CN[C@H](CC(C)C)C(=O)N[C@H]1C(=O)N[C@@H](CC(N)=O)C(=O)N[C@H]2C(=O)N[C@H]3C(=O)N[C@H](C(=O)N[C@H](C(=O)O)c4cc(O)cc(O)c4-c4cc3ccc4O)[C@H](O)c3ccc(c(Cl)c3)Oc3cc2cc(c3O[C@@H]2O[C@H](CO)[C@@H](O)[C@H](O)[C@H]2O[C@H]2C[C@](C)(N)[C@H](O)[C@H](C)O2)Oc2ccc(cc2Cl)[C@H]1O [Vancomycin] | 0.5 µg/mL (≈ 0.345 µM) | 1 µg/mL | 4 µg/mL | 4 µg/mL | 1 µg/mL (≈ 0.69 µM) | 1 µg/mL (≈ 0.69 µM) | 1 µg/mL (≈ 0.69 µM) | 2 µg/mL (≈ 1.38 µM) | 0.25 µg/mL (≈ 0.173 µM) | 0.5 to 64 µg/mL | 1 µg/mL (≈ 0.69 µM) | 2 µg/mL (≈ 1.38 µM) | MIC (P. acnes ATCC 6919; [12]): 0.25 µg/mL (≈ 0.173 µM)
7 | Cc1onc(-c2ccccc2)c1C(=O)N[C@@H]1C(=O)N2[C@@H]1SC(C)(C)[C@@H]2C(=O)O [Oxacillin sodium salt hydrate] | – | – | – | – | – | – | – | – | – | – | – | – | MIC [4, 11]: 2 µg/mL; MIC (S. aureus ATCC 43300; [14]): 64/16/8
